Source: patent US20230107642A1 (Erasca, Inc., priority 2020, published 2023)

Biological target: T1, K-Ras G12C (Homo sapiens, UniProt P01116, G12C)
T1 construct: This protein contained 188 amino acids in total, including an N-terminal 6-Histidine tag; made in house; host or cells: E. coli BL21
Assay: CAF assay (% CAF; method in Example 7, not in this part)
Format: binding
Details: 10 uM compound, 1 h incubation

% CAF @ 10 uM, 1h | Compound
97% | C=CC(=O)N1CCN(c2nc(=O)n3c4c(c(-c5ccc(F)cc5)c(Cl)cc24)SC[C@@H](OC)C3)CC1 [Example 536, (S)-8-(4-acryloylpiperazin-1-yl)-10-chloro-11-(4-fluorophenyl)-3-methoxy-3,4-dihydro-2H,6H-[1,4]thiazepino[2,3,4-ij]quinazolin-6-one]
78.6% | C=CC(=O)N1C[C@H](C)N(c2nc(=O)n3c4c(c(-c5ccc(F)cc5F)c(C(F)(F)F)cc24)SC[C@@H]3COC)C[C@H]1C [Example 493, (3S)-7-((2S,5R)-4-acryloyl-2,5-dimethylpiperazin-1-yl)-10-(2,4-difluorophenyl)-3-(methoxymethyl)-9-(trifluoromethyl)-2H-[1,4]thiazino[2,3,4-ij]quinazolin-5(3H)-one]
61.2% | C=CC(=O)N1CCN(c2nc(=O)n3c4c(c(-c5cc(F)c(F)cc5F)c(Cl)cc24)SC[C@@H]3CN2CCN(CC(F)F)CC2)[C@@H](C)C1 [Example 480, (3S)-7-((S)-4-acryloyl-2-methylpiperazin-1-yl)-9-chloro-3-((4-(2,2-difluoroethyl)piperazin-1-yl)methyl)-10-(2,4,5-trifluorophenyl)-2H-[1,4]thiazino[2,3,4-ij]quinazolin-5(3H)-one]
59.5% | C=CC(=O)N1C[C@H](C)N(c2nc(=O)n3c4c(c(-c5ccc(F)cc5)c(Cl)cc24)SC[C@@H]3CN2CCN(C3CC3)CC2)C[C@H]1C [Example 517, (S)-7-((2S,5R)-4-acryloyl-2,5-dimethylpiperazin-1-yl)-9-chloro-3-((4-cyclopropylpiperazin-1-yl)methyl)-10-(4-fluorophenyl)-2H-[1,4]thiazino[2,3,4-ij]quinazolin-5(3H)-one]
10.4% | C=CC(=O)N1C[C@H](C)N(c2nc(=O)n3c4c(c(-c5ccc(F)cc5F)c(C(F)(F)F)cc24)SC[C@@H]3CN2CCN(CC#N)CC2)C[C@H]1C [Example 561, 2-(4-(((3S)-7-((2S,5R)-4-acryloyl-2,5-dimethylpiperazin-1-yl)-10-(2,4-difluorophenyl)-5-oxo-9-(trifluoromethyl)-3,5-dihydro-2H-[1,4]thiazino[2,3,4-ij]quinazolin-3-yl)methyl)piperazin-1-yl)acetonitrile]
39.3% | C=CC(=O)N1CCN(c2nc(=O)n3c4c(c(-c5c(F)ccc6[nH]ncc56)c(Cl)cc24)SCC3)[C@@H](C)C1 [Example 408, 7-((S)-4-acryloyl-2-methylpiperazin-1-yl)-9-chloro-10-(5-fluoro-1H-indazol-4-yl)-2,3-dihydro-5H-[1,4]thiazino[2,3,4-ij]quinazolin-5-one]
70.7% | C=CC(=O)N1C[C@H](C)N(c2nc(=O)n3c4c(c(-c5ccc(F)cc5F)c(Cl)cc24)SC[C@@H]3CC2CCN(C3CC3)CC2)C[C@H]1C [Example 478, (3S)-7-((2S,5R)-4-acryloyl-2,5-dimethylpiperazin-1-yl)-9-chloro-3-((1-cyclopropylpiperidin-4-yl)methyl)-10-(2,4-difluorophenyl)-2H-[1,4]thiazino[2,3,4-ij]quinazolin-5(3H)-one]
97% | C=CC(=O)N1CCN(c2nc(=O)n3c4c(c(-c5cc(Cl)c(F)cc5F)c(Cl)cc24)SC[C@H](OC)C3)CC1 [Example 538, (3R)-8-(4-acryloylpiperazin-1-yl)-10-chloro-11-(5-chloro-2,4-difluorophenyl)-3-methoxy-3,4-dihydro-2H,6H-[1,4]thiazepino[2,3,4-ij]quinazolin-6-one]
73.1% | C=CC(=O)N1C[C@H](C)N(c2nc(=O)n3c4c(c(-c5cc(Cl)c(F)cc5F)c(C(F)(F)F)cc24)SC[C@@H]3CN2CCN(CC(F)F)CC2)C[C@H]1C (atropisomer, axis not shown) [Example 556, (3S,10R)-7-((2S,5R)-4-acryloyl-2,5-dimethylpiperazin-1-yl)-10-(5-chloro-2,4-difluorophenyl)-3-((4-(2,2-difluoroethyl)piperazin-1-yl)methyl)-9-(trifluoromethyl)-2H-[1,4]thiazino[2,3,4-ij]quinazolin-5(3H)-one]

Compound | % CAF @ 10 uM, 1h
CC#CC(=O)N1C2CC(=O)CC1CN(c1nc(=O)n3c4c(c(-c5ccc(F)cc5F)c(C(F)(F)F)cc14)SCC3)C2 [Example 453, 7-(9-(but-2-ynoyl)-7-oxo-3,9-diazabicyclo[3.3.1]nonan-3-yl)-10-(2,4-difluorophenyl)-9-(trifluoromethyl)-2,3-dihydro-5H-[1,4]thiazino[2,3,4-ij]quinazolin-5-one] | 37%

Same assay, conditions: 10 uM, 1 h; Table 3

% CAF @ 10 uM, 1h | Compound
78.8% | C=CC(=O)N1CCN(c2nc(=O)n3c4c(c(-c5cc(F)c(F)c(F)c5)c(Cl)cc24)SCC3)[C@@H](C)C1 [Example 90, (S)-7-(4-acryloyl-2-methylpiperazin-1-yl)-9-chloro-10-(3,4,5-trifluorophenyl)-2,3-dihydro-5H-[1,4]thiazino[2,3,4-ij]quinazolin-5-one]
96% | C=CC(=O)N1CCN(c2nc(=O)n3c4c(c(-c5ccccc5F)c(Cl)cc24)SCC3)[C@@H](C)C1 (atropisomer, axis not shown) [Example 124, (S)-7-((S)-4-acryloyl-2-methylpiperazin-1-yl)-9-chloro-10-(2-fluorophenyl)-2,3-dihydro-5H-[1,4]thiazino[2,3,4-ij]quinazolin-5-one]
97.1% | C[C@H]1CN(C(=O)/C=C/C(F)F)CCN1c1nc(=O)n2c3c(c(-c4ccc(F)cc4F)c(Cl)cc13)SCC2 [Example 119, 9-chloro-7-((S)-4-((E)-4,4-difluorobut-2-enoyl)-2-methylpiperazin-1-yl)-10-(2,4-difluorophenyl)-2,3-dihydro-5H-[1,4]thiazino[2,3,4-ij]quinazolin-5-one]
0% | C=CC(=O)N1[C@@H](C)CN(c2nc(=O)n3c4c(c(-c5ccc(F)cc5F)c(Cl)cc24)SCC3)C[C@@H]1C [Example 156, 7-((3S,5S)-4-acryloyl-3,5-dimethylpiperazin-1-yl)-9-chloro-10-(2,4-difluorophenyl)-2,3-dihydro-5H-[1,4]thiazino[2,3,4-ij]quinazolin-5-one]
96.7% | C=CC(=O)N1CCN(c2nc(=O)n3c4c(c(-c5c(F)cc(F)cc5F)c(Cl)cc24)SC[C@@H]3CC2CCN(C)CC2)[C@@H](C)C1 [Example 92, (S)-7-((S)-4-acryloyl-2-methylpiperazin-1-yl)-9-chloro-3-((1-methylpiperidin-4-yl)methyl)-10-(2,4,6-trifluorophenyl)-2,3-dihydro-5H-[1,4]thiazino[2,3,4-ij]quinazolin-5-one]
90.7% | C=CC(=O)N1CCN(c2nc(=O)n3c4c(c(-c5c(F)cc(F)cc5F)c(Cl)cc24)SCC3)[C@@H](C)C1 [Example 146, (S)-7-(4-acryloyl-2-methylpiperazin-1-yl)-9-chloro-10-(2,4,6-trifluorophenyl)-2,3-dihydro-5H-[1,4]thiazino[2,3,4-ij]quinazolin-5-one]
95% | C[C@H]1CN(C(=O)/C=C/C(F)(F)F)CCN1c1nc(=O)n2c3c(c(-c4ccc(F)c(Cl)c4)c(Cl)cc13)SCC2 [Example 93, (S,E)-9-chloro-10-(3-chloro-4-fluorophenyl)-7-(2-methyl-4-(4,4,4-trifluorobut-2-enoyl)piperazin-1-yl)-2,3-dihydro-5H-[1,4]thiazino[2,3,4-ij]quinazolin-5-one]
89.4% | C=CC(=O)N1CCN(c2nc(=O)n3c4c(c(-n5ccccc5=O)c(Cl)cc24)SCC3)[C@@H](C)C1 [Example 136, 7-((S)-4-acryloyl-2-methylpiperazin-1-yl)-9-chloro-10-(2-oxopyridin-1(2H)-yl)-2,3-dihydro-5H-[1,4]thiazino[2,3,4-ij]quinazolin-5-one]
87% | C=CC(=O)N1CCN(c2nc(=O)n3c4c(c(-c5ccc(F)cc5)c(Cl)cc24)SC[C@H]3CC2CCN(CC(F)F)CC2)[C@@H](C)C1 [Example 68, (R)-7-((S)-4-acryloyl-2-methylpiperazin-1-yl)-9-chloro-3-((1-(2,2-difluoroethyl)piperidin-4-yl)methyl)-10-(4-fluorophenyl)-2,3-dihydro-5H-[1,4]thiazino[2,3,4-ij]quinazolin-5-one]
95.1% | C=CC(=O)N1CCN(c2nc(=O)n3c4c(c(-c5ccc(F)cc5F)c(Cl)cc24)SCC3)CC1 [Example 164, 7-(4-acryloylpiperazin-1-yl)-9-chloro-10-(2,4-difluorophenyl)-2,3-dihydro-5H-[1,4]thiazino[2,3,4-ij]quinazolin-5-one]
95.2% | C[C@H]1CN(C(=O)/C=C/C(F)(F)F)CCN1c1nc(=O)n2c3c(c(-c4c(F)cc(F)cc4F)c(Cl)cc13)SCC2 [Example 111, (S,E)-9-chloro-7-(2-methyl-4-(4,4,4-trifluorobut-2-enoyl)piperazin-1-yl)-10-(2,4,6-trifluorophenyl)-2,3-dihydro-5H-[1,4]thiazino[2,3,4-ij]quinazolin-5-one]
95.4% | C=CC(=O)N1CCN(c2nc(=O)n3c4c(c(-c5ccc(F)cc5F)c(Cl)cc24)SCCC3)[C@@H](C)C1 [Example 102, 8-((S)-4-acryloyl-2-methylpiperazin-1-yl)-10-chloro-11-(2,4-difluorophenyl)-3,4-dihydro-2H,6H-[1,4]thiazepino[2,3,4-ij]quinazolin-6-one]
23.3% | C=CC(=O)N1CCN(c2nc(=O)n3c4c(c(-c5ccc(F)cc5F)c(Cl)cc24)SCC3)[C@@H](CN2CCC2)C1 [Example 169, 7-((S)-4-acryloyl-2-(azetidin-1-ylmethyl)piperazin-1-yl)-9-chloro-10-(2,4-difluorophenyl)-2,3-dihydro-5H-[1,4]thiazino[2,3,4-ij]quinazolin-5-one]

Same assay, conditions: 10 μM, 1 h; Table 4

% CAF @ 10 μM, 1 h | Compound
96.9% | C=CC(=O)N1CCN(c2nc(=O)n3c4c(c(-c5c(F)cc(F)cc5F)c(Cl)cc24)SC[C@@H]3CCCN2C[C@@H]3C[C@H]2CO3)[C@@H](C)C1 [Example 340, (S)-3-(3-((1S,4S)-2-oxa-5-azabicyclo[2.2.1]heptan-5-yl)propyl)-7-((S)-4-acryloyl-2-methylpiperazin-1-yl)-9-chloro-10-(2,4,6-trifluorophenyl)-2H-[1,4]thiazino[2,3,4-ij]quinazolin-5(3H)-one]
